Reference: patent US10072005B2, “4-azaindole derivatives” (EISAI R&D MANAGEMENT CO., LTD., priority 2013, dated 2018)

The compounds below were run against mAChR M1 (Homo sapiens, UniProt P11229) (assay: In vitro cellular calcium flux assay, positive allosteric modulation of mAChR M1). Conditions: BHK cells expressing mAChR M1; EC20 carbachol; Examples 76-80 and 82-89 slightly modified procedure.
Assay type: cell-based
Method: Baby hamster kidney cells stably expressing human or rat mAChR M1 to M5 were utilised for primary and selectivity profiling activities. mAChR M2 and M4 cell lines also stably expressed the chimeric Gαqi5 G-protein.
Human mAChR M1, M3, M5 and rat M1 cells were grown in low glucose Dulbecco's Modified Eagle's Medium (DMEM) medium plus heat inactivated 10% fetal bovine serum (HI FBS) and 500 μg/ml hygromycin B^1. Human mAChR M2 and M4 cells were maintained as above with^2 the addition of 500 μg/ml G418 to the media. Cells were maintained in culture at 37° C./5% CO2 and passaged twice weekly by treatment with 0.05% Trypsin/EDTA detachment solution, centrifugation (200 g, 5 min) and re-suspension in fresh media. Following cell expansion, cells were cryopreserved at −80° C. by treatment with 0.05% Trypsin/EDTA detachment solution, centrifugation (200 g, 5 min) and re-suspension of the pellet in freezing media (90% HI FBS/10% DMSO^3) at 15E6 cells/ml^4.
Prior to assaying, cells were prepared by thawing at 37° C. in a water bath, centrifugation (200 g, 5 min) and re-suspension of the pellet in fresh media. 15000 cells per well were seeded in black, clear bottomed 384-well Greiner Bio-One plates in plating medium (DMEM/10% HI FBS) and incubated overnight at 37 C/5% CO2.
On the day of the assay, media was removed from each well and replaced with 50 μl^5 assay buffer (HBSS with 20 mM HEPES and 2.5 mM Probenecid) containing the calcium indicator, Calcium 4 (Molecular Devices). Cells were then incubated at 37° C./5% CO2 for 30 min and at room temperature.
Compound preparation was carried out by generation of 11-point, 1 in 3 serial dilution concentration response curves in 100% DMSO. Compound was then diluted 1 in 65^6 with assay buffer (HBSS with 20 mM HEPES and 2.5 mM Probenecid) prior to the addition of 10 ul^7 to the cells using a Tetra fluorometric imaging plate reader (Molecular Devices)^8. Compound driven increases in intracellular calcium flux was measured as an increase in fluorescence (494Ex, 516Em)^9.
Positive allosteric modulator pEC50 values and antagonist pIC50 values for each compound were then determined. […] The points of modification and the alternate reagents, concentrations or equipment employed in these examples were: ^1200 μg/ml hygromycin B; ^2G418 not added; ^3CELLBANKER 1; ^410E6; ^5 40 μl; ^6 1 in 99; ^7 20 μl; ^8FDSS6000 (Hamamatsu Photonics); ^9(480Ex, 540Em); ^10Spotfire (TIBCO).

mAChR M1, sequence (P11229 whole entry, looked up): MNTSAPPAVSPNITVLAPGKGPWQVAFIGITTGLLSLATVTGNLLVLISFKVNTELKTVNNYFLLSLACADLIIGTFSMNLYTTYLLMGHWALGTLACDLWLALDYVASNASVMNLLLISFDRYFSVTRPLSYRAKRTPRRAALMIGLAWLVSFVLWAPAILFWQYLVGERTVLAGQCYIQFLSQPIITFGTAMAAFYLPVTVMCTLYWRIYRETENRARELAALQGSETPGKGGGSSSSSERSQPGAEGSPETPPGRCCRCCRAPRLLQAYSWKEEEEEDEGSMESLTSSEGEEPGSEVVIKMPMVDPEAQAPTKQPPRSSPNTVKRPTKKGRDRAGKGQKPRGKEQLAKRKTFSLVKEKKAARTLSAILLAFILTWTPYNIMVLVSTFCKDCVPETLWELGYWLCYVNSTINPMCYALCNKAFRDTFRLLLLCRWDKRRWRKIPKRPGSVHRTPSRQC

| SMILES | pEC50 for positive allosteric modulation |
| --- | --- |
| Cc1ccnc2c(C(=O)N[C@H]3CCCC[C@@H]3O)cn(Cc3cc(F)ccc3F)c12 [Example 98, 1-(2,5-difluorobenzyl)-N-((1S,2S)-2-hydroxycyclohexyl)-7-methyl-1H-pyrrolo[3,2-b]pyridine-3-carboxamide] | 7.0 |
| O=C(NC1(CO)CCCC1)c1cn(Cc2ccc(F)cc2)c2cccnc12 [Example 21, 1-(4-Fluorobenzyl)-N-(1-(hydroxymethyl)cyclopentyl)-1H-pyrrolo[3,2-b]pyridine-3-carboxamide] | 5.7 |
| Cc1cccc(Cn2cc(C(=O)N[C@H]3CCCC[C@@H]3O)c3ncccc32)c1 [Example 96, N-((1S,2S)-2-hydroxycyclohexyl)-1-(3-methylbenzyl)-1H-pyrrolo[3,2-b]pyridine-3-carboxamide] | 6.7 |
| Cc1ccnc2c(C(=O)N[C@H]3CCCC[C@@H]3O)cn(Cc3cc(F)cc(F)c3)c12 [Example 101, 1-(3,5-difluorobenzyl)-N-((1S,2S)-2-hydroxycyclohexyl)-7-methyl-1H-pyrrolo[3,2-b]pyridine-3-carboxamide] | 7.0 |
| O=C(N[C@H]1CCCC[C@@H]1O)c1cn(Cc2ccc(F)cc2F)c2cccnc12 [Example 24, 1-(2,4-Difluorobenzyl)-N-((1S,2S)-2-hydroxycyclohexyl)-1H-pyrrolo[3,2-b]pyridine-3-carboxamide] | 6.5 |
| Cc1csc(Cn2cc(C(=O)N[C@H]3CCCC[C@@H]3O)c3nccc(Cl)c32)n1 [Example 74, 7-Chloro-N-((1S,2S)-2-hydroxycyclohexyl)-1-((4-methylthiazol-2-yl)methyl)-1H-pyrrolo[3,2-b]pyridine-3-carboxamide] | 6.7 |
| Cc1ccnc(Cn2cc(C(=O)N[C@H]3CCCC[C@@H]3O)c3nccc(Cl)c32)c1 [Example 80, 7-Chloro-N-((1S,2S)-2-hydroxycyclohexyl)-1-((4-methylpyridin-2-yl)methyl)-1H-pyrrolo[3,2-b]pyridine-3-carboxamide] | 7.1 |
| Cc1ccc(Cn2cc(C(=O)N[C@H]3CCCC[C@@H]3O)c3nccc(Cl)c32)cn1 [Example 62, 7-Chloro-N-((1S,2S)-2-hydroxycyclohexyl)-1-((6-methylpyridin-3-yl)methyl)-1H-pyrrolo[3,2-b]pyridine-3-carboxamide] | 7.4 |
| O=C(N[C@H]1CCCC[C@@H]1O)c1cn(Cc2cc(F)ccc2F)c2cccnc12 [Example 3, 1-(2,5-Difluorobenzyl)-N-((1S,2S)-2-hydroxycyclohexyl)-1H-pyrrolo[3,2-b]pyridine-3-carboxamide] | 6.8 |
| Cc1ccnc2c(C(=O)N[C@H]3CCCC[C@@H]3O)cn(Cc3ccc(OC(F)(F)F)cc3)c12 [Example 100, N-((1S,2S)-2-hydroxycyclohexyl)-7-methyl-1-(4-(trifluoromethoxy)benzyl)-1H-pyrrolo[3,2-b]pyridine-3-carboxamide] | 6.8 |
| O=C(NC1CCC(F)(F)CC1)c1cn(Cc2ccc(-n3cccn3)cc2)c2cccnc12 [Example 51, 1-(4-(1H-Pyrazol-1-yl)benzyl)-N-(4,4-difluorocyclohexyl)-1H-pyrrolo[3,2-b]pyridine-3-carboxamide] | 6.3 |
| CN1CCC[C@H](NC(=O)c2cn(Cc3ccc(-n4cccn4)cc3)c3cccnc23)C1 [Example 54, (S)-1-(4-(1H-Pyrazol-1-yl)benzyl)-N-(1-methylpiperidin-3-yl)-1H-pyrrolo[3,2-b]pyridine-3-carboxamide] | 7.5 |
| O=C(N[C@H]1CCCC[C@@H]1O)c1cn(Cc2ccc(C(F)(F)F)cc2)c2cccnc12 [Example 90, N-((1S,2S)-2-hydroxycyclohexyl)-1-(4-(trifluoromethyl)benzyl)-1H-pyrrolo[3,2-b]pyridine-3-carboxamide] | 6.6 |
| COc1ccnc2c(C(=O)N[C@H]3CCCC[C@@H]3O)cn(Cc3cccc(F)c3F)c12 [Example 104, 1-(2,3-difluorobenzyl)-N-((1S,2S)-2-hydroxycyclohexyl)-7-methoxy-1H-pyrrolo[3,2-b]pyridine-3-carboxamide] | 6.3 |
| O=C(N[C@H]1CCCC[C@@H]1O)c1cn(Cc2cccc(F)c2)c2cccnc12 [Example 4, 1-(3-Fluorobenzyl)-N-((1S,2S)-2-hydroxycyclohexyl)-1H-pyrrolo[3,2-b]pyridine-3-carboxamide] | 6.8 |
| Cc1ccc(Cn2cc(C(=O)N[C@H]3CCCC[C@@H]3O)c3nccc(C)c32)nc1 [Example 64, N-((1S,2S)-2-Hydroxycyclohexyl)-7-methyl-1-((5-methylpyridin-2-yl)methyl)-1H-pyrrolo[3,2-b]pyridine-3-carboxamide] | 7.2 |
| Cc1cc(Cn2cc(C(=O)N[C@H]3CCCC[C@@H]3O)c3ncccc32)ccn1 [Example 76, N-((1S,2S)-2-Hydroxycyclohexyl)-1-((2-methylpyridin-4-yl)methyl)-1H-pyrrolo[3,2-b]pyridine-3-carboxamide] | 6.4 |
| O=C(N[C@H]1CCCNC1)c1cn(Cc2ccc(-n3cccn3)cc2)c2cccnc12 [Example 52, (S)-1-(4-(1H-Pyrazol-1-yl)benzyl)-N-(piperidin-3-yl)-1H-pyrrolo[3,2-b]pyridine-3-carboxamide] | 6.7 |
| O=C(N[C@H]1CCCC[C@@H]1O)c1cn(Cc2cccc(F)c2F)c2c(Cl)ccnc12 [Example 15, 7-Chloro-1-(2,3-difluorobenzyl)-N-((1S,2S)-2-hydroxycyclohexyl)-1H-pyrrolo[3,2-b]pyridine-3-carboxamide] | 7.0 |
| Cc1ccnc2c(C(=O)N[C@H]3CCCC[C@@H]3O)cn(Cc3cccc(F)c3)c12 [Example 65, 1-(3-Fluorobenzyl)-N-((1S,2S)-2-hydroxycyclohexyl)-7-methyl-1H-pyrrolo[3,2-b]pyridine-3-carboxamide] | 7.7 |
| COc1cc(Cn2cc(C(=O)N[C@H]3CCCC[C@@H]3O)c3nccc(Cl)c32)ccn1 [Example 69, 7-Chloro-N-((1S,2S)-2-hydroxycyclohexyl)-1-((2-methoxypyridin-4-yl)methyl)-1H-pyrrolo[3,2-b]pyridine-3-carboxamide] | 8.0 |
| Cc1ccc(Cn2cc(C(=O)N[C@H]3CCCC[C@@H]3O)c3nccc(C)c32)cc1 [Example 63, N-((1S,2S)-2-Hydroxycyclohexyl)-7-methyl-1-(4-methylbenzyl)-1H-pyrrolo[3,2-b]pyridine-3-carboxamide] | 7.6 |
| Cc1ccc(Cn2cc(C(=O)N[C@H]3CCCC[C@@H]3O)c3ncccc32)c(F)c1 [Example 97, 1-(2-fluoro-4-methylbenzyl)-N-((1S,2S)-2-hydroxycyclohexyl)-1H-pyrrolo[3,2-b]pyridine-3-carboxamide] | 6.9 |
| COc1cccc(Cn2cc(C(=O)N[C@H]3CCCC[C@@H]3O)c3ncccc32)c1F [Example 102, 1-(2-fluoro-3-methoxybenzyl)-N-((1S,2S)-2-hydroxycyclohexyl)-1H-pyrrolo[3,2-b]pyridine-3-carboxamide] | 6.4 |
| CN1CCC(NC(=O)c2cn(Cc3ccc(F)cc3)c3cccnc23)CC1 [Example 31, 1-(4-Fluorobenzyl)-N-(1-methylpiperidin-4-yl)-1H-pyrrolo[3,2-b]pyridine-3-carboxamide] | 6.5 |
| Cn1cc(Cn2cc(C(=O)N[C@H]3CCCC[C@@H]3O)c3nccc(Cl)c32)cn1 [Example 72, 7-Chloro-N-((1S,2S)-2-hydroxycyclohexyl)-1-((1-methyl-1H-pyrazol-4-yl)methyl)-1H-pyrrolo[3,2-b]pyridine-3-carboxamide] | 7.8 |
| Cc1ccc(Cn2cc(C(=O)N[C@H]3CCCC[C@@H]3O)c3ncccc32)nc1 [Example 26, N-((1S,2S)-2-Hydroxycyclohexyl)-1-((5-methylpyridin-2-yl)methyl)-1H-pyrrolo[3,2-b]pyridine-3-carboxamide] | 6.1 |
| Cn1cc(-c2ccc(Cn3cc(C(=O)N[C@H]4CCCC[C@@H]4O)c4ncccc43)cc2)cn1 [Example 57, N-((1S,2S)-2-Hydroxycyclohexyl)-1-(4-(1-methyl-1H-pyrazol-4-yl)benzyl)-1H-pyrrolo[3,2-b]pyridine-3-carboxamide] | 7.6 |
